The supplement of paper PMC10307832

Key:
Assay in all cases: relative viability (nuclei count vs DMSO), 5 days (fraction); higher = more cells survive
[1] = compound: O=C(NC1CCNCC1)c1n[nH]cc1NC(=O)c1c(Cl)cccc1Cl [AT-7519] + CC1(C)CCC(c2ccc(Cl)cc2)=C(CN2CCN(c3ccc(C(=O)NS(=O)(=O)c4ccc(N[C@H](CCN5CCOCC5)CSc5ccccc5)c(S(=O)(=O)C(F)(F)F)c4)cc3)CC2)C1 [Navitoclax] (partner 0.5 µM)
In short: (§1)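 Lung cancer cell lines, seeded in 1536-well plates, were treated the following day by pin tool with a single drug or with five library-drug doses (not always all listed) in √10 steps on top of a fixed anchor-drug dose. Cells were fixed and nuclei stained in one step after 5 days, and nuclei were counted. Relative viability is the nuclei count for treated wells divided by that for vehicle wells, reported as medians of duplicate plates.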

[2] = compound: O=C(NC1CCNCC1)c1n[nH]cc1NC(=O)c1c(Cl)cccc1Cl [AT-7519] + CC(=O)Nc1cccc(-n2c(=O)n(C3CC3)c(=O)c3c(Nc4ccc(I)cc4F)n(C)c(=O)c(C)c32)c1 [Trametinib] (partner 0.02 µM)
In short: as §1

[3] = compound: C1=CC2=C(C=C(C(=C2N=C1)O)N=NC3=CC4=C(C=C3)C=C(C=C4)S(=O)(=O)O)S(=O)(=O)O + O=C(CCCCCCC(=O)Nc1ccccc1)NO [Vorinostat] (partner 1 µM)
In short: as §1

[4] = compound: C1=CC2=C(C=C(C(=C2N=C1)O)N=NC3=CC4=C(C=C3)C=C(C=C4)S(=O)(=O)O)S(=O)(=O)O + COc1cc2c(Oc3ccc(NC(=O)C4(C(=O)Nc5ccc(F)cc5)CC4)cc3F)ccnc2cc1OCCCN1CCOCC1 [Foretinib] (partner 0.25 µM)
In short: as §1

| Cell Line | relative viability ([1]; first compound 0.01 µM) | relative viability ([1]; first compound 0.03162 µM) | relative viability ([1]; first compound 0.3162 µM) | relative viability ([1]; first compound 1 µM) | relative viability ([2]; first compound 0.01 µM) | relative viability ([2]; first compound 0.03162 µM) | relative viability ([2]; first compound 0.3162 µM) | relative viability ([2]; first compound 1 µM) | relative viability ([3]; first compound 0.08 µM) | relative viability ([3]; first compound 0.253 µM) | relative viability ([3]; first compound 0.8 µM) | relative viability ([3]; first compound 2.53 µM) | relative viability ([3]; first compound 8 µM) | relative viability ([4]; first compound 0.08 µM) | relative viability ([4]; first compound 0.253 µM) | relative viability ([4]; first compound 0.8 µM) | relative viability ([4]; first compound 2.53 µM) | relative viability ([4]; first compound 8 µM) |
| --- | --- | --- | --- | --- | --- | --- | --- | --- | --- | --- | --- | --- | --- | --- | --- | --- | --- | --- |
| NCI-H460 | 0.965 | 1 | 0.932 | 0.0202 | 0.193 | 0.155 | 0.129 | 0.0266 | 0.955 | 0.66 | 0.684 | 0.708 | 0.71 | 1.12 | 1.01 | 1.01 | 1.01 | 0.928 |
| NCI-H520 | 1.14 | 0.991 | 0.986 | 0.605 | 0.741 | 0.494 | 0.673 | 0.229 | 0.66 | 0.662 | 0.761 | 0.681 | 0.753 | 1.01 | 0.828 | 0.901 | 0.887 | 1.05 |
| NCI-H596 | 1 | 1.06 | 0.951 | 0.637 | 0.86 | 0.811 | 0.662 | 0.662 | 0.544 | 0.645 | 0.545 | 0.613 | 0.649 | 0.902 | 0.904 | 0.82 | 1.01 | 0.737 |
| NCI-H647 | 1.11 | 1.19 | 1.12 | 0.762 | 0.439 | 0.342 | 0.475 | 0.159 | 0.646 | 0.607 | 0.563 | 0.639 | 0.437 | 1.33 | 1.09 | 1.14 | 1.28 | 1.3 |
